The supplement of paper PMC10307832

Columns and labels:
Experiment in all cases: relative viability (nuclei count vs DMSO), 5 days (fraction); higher = more cells survive
JZL-184 = compound: C1CN(CCC1C(C2=CC3=C(C=C2)OCO3)(C4=CC5=C(C=C4)OCO5)O)C(=O)OC6=CC=C(C=C6)[N+](=O)[O-] [JZL-184]
Procedure, shortened: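 Five library-drug doses, separated by factors of √10, were pinned into 1536-well plates holding lung cancer cell lines after an overnight stay at 37 °C. Cells were fixed, permeabilised and Hoechst-stained in one step after 5 days without medium change, then imaged at 4×. Viability compares treated-well with vehicle-well nuclei, counted in MetaXpress, as a median across plates. Passing plates had control CV below 25% and at least one doubling.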

JZL-184 + Crizotinib = compound: C1CN(CCC1C(C2=CC3=C(C=C2)OCO3)(C4=CC5=C(C=C4)OCO5)O)C(=O)OC6=CC=C(C=C6)[N+](=O)[O-] [JZL-184] + C[C@@H](Oc1cc(-c2cnn(C3CCNCC3)c2)cnc1N)c1c(Cl)ccc(F)c1Cl [Crizotinib] (partner 1 µM)
Procedure, shortened: (§1)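 Relative viability is defined as nuclei in treated wells over nuclei in vehicle wells. Duplicate plates were run and medians reported. Lung cancer cell lines in 1536-well plates were dosed by pin tool one day after seeding, with one drug or with a fixed anchor-drug dose plus five library-drug doses (not always all listed) in √10 steps, and nuclei were counted after 5 days.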

JZL-184 + Alpelisib = compound: C1CN(CCC1C(C2=CC3=C(C=C2)OCO3)(C4=CC5=C(C=C4)OCO5)O)C(=O)OC6=CC=C(C=C6)[N+](=O)[O-] [JZL-184] + Cc1nc(NC(=O)N2CCC[C@H]2C(N)=O)sc1-c1ccnc(C(C)(C)C(F)(F)F)c1 [Alpelisib] (partner 2 µM)
Procedure, shortened: as §1

JZL-184 + Dasatinib = compound: C1CN(CCC1C(C2=CC3=C(C=C2)OCO3)(C4=CC5=C(C=C4)OCO5)O)C(=O)OC6=CC=C(C=C6)[N+](=O)[O-] [JZL-184] + Cc1nc(Nc2ncc(C(=O)Nc3c(C)cccc3Cl)s2)cc(N2CCN(CCO)CC2)n1 [Dasatinib] (partner 0.075 µM)
Procedure, shortened: as §1

JZL-184 + Olaparib = compound: C1CN(CCC1C(C2=CC3=C(C=C2)OCO3)(C4=CC5=C(C=C4)OCO5)O)C(=O)OC6=CC=C(C=C6)[N+](=O)[O-] [JZL-184] + O=C(c1cc(Cc2n[nH]c(=O)c3ccccc23)ccc1F)N1CCN(C(=O)C2CC2)CC1 [Olaparib] (partner 8 µM)
Procedure, shortened: as §1

Cell Line | relative viability (JZL-184; 0.04 µM) | relative viability (JZL-184; 0.4 µM) | relative viability (JZL-184; 1.265 µM) | relative viability (JZL-184; 4 µM) | relative viability (JZL-184 + Crizotinib; first compound 0.04 µM) | relative viability (JZL-184 + Crizotinib; first compound 0.4 µM) | relative viability (JZL-184 + Crizotinib; first compound 1.265 µM) | relative viability (JZL-184 + Crizotinib; first compound 4 µM) | relative viability (JZL-184 + Alpelisib; first compound 0.04 µM) | relative viability (JZL-184 + Alpelisib; first compound 0.4 µM) | relative viability (JZL-184 + Alpelisib; first compound 1.265 µM) | relative viability (JZL-184 + Alpelisib; first compound 4 µM) | relative viability (JZL-184 + Dasatinib; first compound 0.04 µM) | relative viability (JZL-184 + Dasatinib; first compound 0.4 µM) | relative viability (JZL-184 + Dasatinib; first compound 1.265 µM) | relative viability (JZL-184 + Dasatinib; first compound 4 µM) | relative viability (JZL-184 + Olaparib; first compound 0.04 µM) | relative viability (JZL-184 + Olaparib; first compound 0.4 µM) | relative viability (JZL-184 + Olaparib; first compound 1.265 µM) | relative viability (JZL-184 + Olaparib; first compound 4 µM)
201T | 0.997 | 0.992 | 1.01 | 0.953 | 1.06 | 1.03 | 1.01 | 1.01 | 0.991 | 1.05 | 1.04 | 0.997 | 0.577 | 0.535 | 0.61 | 0.574 | 0.858 | 0.845 | 0.82 | 0.841
A549 | 1.1 | 0.928 | 1.01 | 0.957 | 0.609 | 0.765 | 0.68 | 0.699 | 0.966 | 0.588 | 0.894 | 0.614 | – | – | – | – | 0.31 | 0.288 | 0.382 | 0.367
A-427 | 1.09 | 0.982 | 1.12 | 0.948 | 1.03 | 0.907 | 0.914 | 0.77 | 1.08 | 1.06 | 1.1 | 0.979 | 0.785 | 0.683 | 0.71 | 0.706 | 0.807 | 0.739 | 0.77 | 0.732
ABC-1 | 0.868 | 0.901 | 1.09 | 1.15 | 1.35 | 0.925 | 1.33 | 1.21 | 1.1 | 0.996 | 1.06 | 0.952 | 0.601 | 0.479 | 0.533 | 0.482 | 0.821 | 0.814 | 0.842 | 0.829
BEN | 1.1 | 0.949 | 1.21 | 1.01 | 1 | 0.87 | 1.02 | 0.861 | 1.18 | 0.998 | 1.12 | 1.03 | 0.333 | 0.349 | 0.328 | 0.337 | 1.15 | 1.01 | 1.24 | 1.03
CAL-12T | 1.23 | 0.856 | 1.13 | 0.949 | 0.993 | 0.607 | 0.621 | 0.497 | 1.5 | 1.39 | 1.08 | 1.17 | 0.515 | 0.254 | 0.488 | 0.341 | 0.836 | 0.701 | 0.786 | 0.777
COR-L23 | 1.2 | 1.06 | 1.03 | 0.971 | 0.704 | 0.725 | 0.723 | 0.636 | 1.02 | 0.672 | 0.704 | 0.708 | 0.596 | 0.425 | 0.514 | 0.407 | 0.379 | 0.365 | 0.315 | 0.4
COR-L 105 | 1.13 | 0.876 | 1.1 | 0.812 | 0.985 | 0.735 | 0.822 | 0.696 | 0.998 | 1.2 | 0.837 | 0.916 | 0.493 | 0.389 | 0.35 | 0.336 | 0.686 | 0.775 | 0.663 | 0.679
ChaGo-K-1 | 1.12 | 0.934 | 1.03 | 0.957 | 1.31 | 1.08 | 1.08 | 1.06 | – | – | – | – | 0.657 | 0.581 | 0.61 | 0.595 | 0.485 | 0.411 | 0.447 | 0.41
EKVX | 1.02 | 0.979 | 1.04 | 0.927 | 0.934 | 0.972 | 1.02 | 0.741 | 0.679 | 0.84 | 0.875 | 0.886 | 0.474 | 0.536 | 0.576 | 0.581 | 0.851 | 0.778 | 0.769 | 0.834
EMC-BAC-2 | 1.05 | 0.944 | 1.12 | 0.922 | 0.939 | 0.726 | 0.785 | 0.704 | 0.794 | 0.733 | 0.776 | 0.729 | 0.349 | 0.32 | 0.336 | 0.326 | 0.473 | 0.479 | 0.491 | 0.492
EPLC-272H | 1 | 0.914 | 1.15 | 0.937 | 1.03 | 0.814 | 1.93 | 1.03 | 0.953 | 0.817 | 1.01 | 0.966 | 0.403 | 0.41 | 0.445 | 0.325 | 0.68 | 0.613 | 0.805 | 0.778
H3255 | 1.1 | 0.871 | 1.07 | 0.885 | 1.17 | 0.748 | 0.91 | 0.786 | 0.794 | 0.725 | 0.714 | 0.577 | 0.353 | 0.346 | 0.288 | 0.38 | 0.614 | 0.574 | 0.587 | 0.481
HARA | 0.995 | 0.814 | 1.05 | 0.831 | 1.17 | 0.99 | 0.995 | 1.03 | 0.941 | 0.824 | 0.853 | 0.845 | 0.309 | 0.16 | 0.29 | 0.28 | 0.762 | – | 0.762 | 0.947
HCC-15 | 1.07 | 1.03 | 1.08 | 0.978 | 0.944 | 0.808 | 0.883 | 0.762 | 0.933 | 0.899 | 0.877 | 0.931 | 0.647 | 0.673 | 0.677 | 0.524 | 0.725 | 0.685 | 0.771 | 0.736
